Laboratory results reported in patent publication EP4772497A1, “POLYMORPHS OF NITROGEN-CONTAINING HETEROCYCLIC COMPOUNDS, AND USES THEREOF” (BNH Research Co., Ltd., priority 2023, dated 2025).
Values after ≈ are worked out from the molar mass of the structure shown.

Key:
C57BL/6J mice = assay: TC synaptic potency and GABA/AMPA ratio in the barrel cortex after oral administration; type: in vivo; conditions: 8-week-old C57BL/6J mice, 1 mg/kg orally, barrel cortex (layer 4)
Experimental: Following oral administration of crystalline form C, the efficacy of the compound was evaluated by measuring the potency and the GABA/AMPA ratio in the barrel cortex.
Crystalline form C was orally administered at a dose of 1 mg/kg to 8-week-old C57BL/6J mice. For the control group, 200 µL of a mixed solution of DMSO (10):PEG400 (44):saline (55) was orally administered as a vehicle. Experiments were performed on five mice each for the control (vehicle) group and the compound-treated group.

[1] = Wet granulation simulation experiment (XRPD); type: physicochemical; conditions: ground, dried 10 minutes
Experimental: Water or ethanol was added dropwise to about 10 mg of crystalline form C until it was sufficiently wetted. The wet sample was gently ground using a mortar and pestle. After the granulation, the sample was dried under ambient conditions for 10 minutes. Potential changes in form and crystallinity were evaluated by XRPD.
The XRPD results of the wet granulation simulation experiments are shown in Fig. 12, where GNSE1 and GNSE2 represent experiment IDs for water and ethanol, respectively.

[2] = Competitive equilibrium experiments for crystalline forms A and C (XRPD, DSC); type: physicochemical; conditions: forms A and C slurried in acetone, acetonitrile, ethyl acetate, isopropyl acetate, acetone/water (35:65) at 5°C, 25°C, 50°C for 1 week
Experimental: Competitive equilibrium experiments were performed in various solvent systems to determine the relative stability of crystalline forms A and C.
About 15 mg of crystalline form A and 15 mg of crystalline form C were added to 0.2 mL of a saturated solution of each of selected solvents (acetone, acetonitrile, ethyl acetate, isopropyl acetate, and acetone/water (v:v=35:65)) (Table 9). The obtained suspensions were stirred at 5°C, 25°C, and 50°C, respectively, for 1 week. The solid portion (wet cake) was isolated by centrifugal filtration and analyzed by XRPD and DSC, and the results are shown in Figs. 7a to 7f.

[3] = Bulk stability of crystalline form C under stress conditions (HPLC, XRPD, color); type: physicochemical; conditions: for Color / Purity (HPLC) Initial purity:99.9%: 1 week
Experimental: Crystalline form C was placed in an open container at 25°C/92.5% RH, in an open container at 40°C/75% RH, and in a closed container at 60°C for 1 week, respectively. After exposure to the stress conditions, the samples were characterized by XRPD and HPLC, and examined for color changes.
Reference is made to Experimental Method 6 for the HPLC conditions.

APP/PS1 mice = assay: fEPSP slope and LTP in hippocampal CA1 (Schaffer collateral) after dosing, ex vivo synaptic plasticity; conditions: APP/PS1 mice 15 months old, form C 1 mg/kg orally once daily about 11 to 13 days, aducanumab 5 mg/kg i.v., four weekly injections
Experimental: Using APP/PS1 mice (15 months old, Taconic Biosciences), an animal model of Alzheimer's disease, the efficacy of crystalline form C and aducanumab (Creative Biolabs) was evaluated when administered alone or in combination, respectively. A control group and four experimental groups were prepared as follows (see Table 14).
For the control antibody, an isotype antibody was administered intravenously, and for the vehicle, 200 µL of a mixed solution of DMSO (10):PEG400 (44):saline (55) was administered orally. Five mice were used for each treatment group.
Aducanumab was administered at a dose of 5 mg/kg, and the control antibody, which is an inactivated form of aducanumab, was administered at a dose of 5 mg/kg. For the intravenous administration, a total of four injections were administered into the tail vein on the starting day of the experiment and at one-week intervals thereafter.
For oral administration, 1 mg/kg of the compound of the present disclosure (crystalline form C, BnH-015B) or a vehicle was administered orally once daily for about 11 to 13 days, starting about 2 weeks after the initiation of the experiment.

[4] = Approximate solubility of crystalline form C in dissolution media by visual observation; type: physicochemical; conditions: thermodynamic from solid, 37°C per table caption (method: 25°C)
Experimental: About 4 mg of crystalline form C was weighed into a 4 mL or 8 mL glass vial, and 4 to 9 mL of dissolution medium was added to dissolve the drug substance at 25°C. The approximate solubility was determined by visual observation.
The solvents and solubility results are shown in Table 11 (solubility of crystalline form C at 37°C).

[5] = BS1: Solid state, 25°C/92.5% RH, open container
[6] = BS2: Solid state, 40°C/75% RH, open container
[7] = BS3: Solid state, 60°C, closed container

Color [3, 5]: No color change
Purity (HPLC) Initial purity:99.9% [3, 5]: 99.9%
Color [3, 6]: No color change
Purity (HPLC) Initial purity:99.9% [3, 6]: 99.9%
Color [3, 7]: No color change
Purity (HPLC) Initial purity:99.9% [3, 7]: 99.9%
solubility ([4]; aqueous buffer, ES2: pH 4.5 acetate buffer (50mM)): 900 to 1000 µg/mL (≈ 2.87 to 3.19 mM)
solubility ([4]; aqueous buffer, ES3: pH 6.8 phosphate buffer (50mM)): 1800 to 2000 µg/mL (≈ 5.74 to 6.37 mM)
solubility ([4]; simulated gastric fluid, ES1: pH 1.2 HCl buffer (0.2N)): 500 to 600 µg/mL (≈ 1.59 to 1.91 mM)
solubility ([4]; simulated gastric fluid, ES4: SGF, pH 2.0): 400 to 500 µg/mL (≈ 1.27 to 1.59 mM)
solubility ([4]; ES5: FaSSIF-v1, pH 6.5): 1800 to 2000 µg/mL (≈ 5.74 to 6.37 mM)
solubility ([4]; ES6: FeSSIF-v1, pH 5.0): 1800 to 2000 µg/mL (≈ 5.74 to 6.37 mM)
solubility ([4]; ES7: Water): 600 to 700 µg/mL (≈ 1.91 to 2.23 mM)
Compound: C[C@@H]1CC[C@H](C(=O)O)CN1C(=O)Cc1ccc(F)cc1Cl [Crystalline form C, (3S,6R)-1-(2-(2-chloro-4-fluorophenyl)acetyl)-6-methylpiperidine-3-carboxylic acid]
TC synaptic potency (C57BL/6J mice): increase TC synaptic potency
balance of excitation/inhibition (GABA/AMPA ratio) (C57BL/6J mice): maintaining the balance of excitation/inhibition
change in form and crystallinity on granulation with ethanol ([1]; wetted with ethanol): no change in form, but its crystallinity decreased significantly
change in form and crystallinity on granulation with water ([1]; wetted with water): without any change in form or apparent decrease in crystallinity
relative stability of crystalline forms A and C [2]: most thermodynamically stable crystalline form below 50 °C
bulk stability ([3]; from HPLC and XRPD results after 1 week stress): high bulk stability both physically and chemically
long-term potentiation (LTP) of the fEPSP, excitatory SC pathway (APP/PS1 mice; hippocampus CA1): significantly increased
slope of the field excitatory postsynaptic potential (fEPSP), synaptic efficacy (APP/PS1 mice; hippocampus CA1, 4 weeks): significantly increased
